Experimental data from patent US20260183302A1, “PDK1 REGULATORY COMPOUND AND COMPOSITION CONTAINING THE SAME” (PROVIBIO CO., LTD., priority 2024, published 2026).
Entries after “also recorded” stand apart in the source; their conditions may differ.

Legend:
psoriasis-induced mice = experiment: In vivo psoriasis model (Aldara cream, Imiquimod); set-up: species or system BALB/c mice
Description: To verify the therapeutic effect of the compound according to the present invention on psoriasis, a psoriasis animal model was established as follows, and the compound according to the present invention was administered to evaluate the alleviation of skin lesions and changes in immune cell patterns.
For the establishment of the psoriasis animal model, BALB/c mice (7 weeks old, female, 20 g) were purchased from HanabioTech Co., Ltd. and acclimatized to the rearing environment for one week.
Subsequently, the hair on the mouse back was shaved using a hair removal device for the first time, and then completely shaved using a depilatory cream (Nicrin Cream (80% thioglycolic acid, Il Dong Pharmaceutical)) for the second time. The mice were then kept for 24 hours to confirm the absence of skin damage.
To verify the psoriasis prevention and therapeutic effects of the compounds according to the present invention, the following experimental groups were established:
[Normal control group (Normal, Not Treatment), psoriasis-induced control group (Psoriasis, Not Treatment), psoriasis-induced vehicle control group (Psoriasis, Vehicle), experimental group (GO85, GO86, GO88, GO89, PBK-2024-010, PBK-2024-026, PBK-2025-002, PBK-2025-004, PBK-2025-016, PBK-2025-017, PBK-2025-023)]. […]
Body weights of mice in each group were measured on days 1, 4, and 8 after the start of injection and psoriasis induction. […]
To evaluate the therapeutic effect in a psoriasis-induced mouse model, the PASI (Psoriasis Area and Severity Index) score was measured.
The PASI score is based on three criteria: erythema, scaling, and skin thickness, each scored from 0 (none) to 4 (severe). […]
Observations were conducted daily at the same time, and the same observer visually assessed each criterion and recorded the scores, with the results presented in FIG. 13. […]
All samples were measured in duplicate, and the absorbance was measured at 450 nm using a microplate reader.

[1] = test system: Human multiple myeloma, KMS26; experiment: Relative cell viability, KMS26 (CCK-8); assay type: cell-based; details: KMS26, 1 μM
Description: After that, 10 μL of CCK-8 was added to each well, and the plate was incubated again at 37° C. in a 5% CO2 incubator for 2 hours.
In other words, when the survival rate of untreated cells (DMSO) is set at 100%, the relative cell survival rate in each group treated with the drug at different concentrations is indicated.

[2] = test system: PDK1 phosphorylation in SU-DHL-8 cells; experiment: PDK1 phosphorylation inhibition by flow cytometry (pPDK1-PE) in SU-DHL-8 cells; assay type: cell-based, human; details: SU-DHL-8, 24 hours, vs control group
Description: After stabilizing the cells, the compound of the present invention was added, and the cells were cultured for 24 hours.
After drug treatment, the cells were harvested, and the Fc receptor blocking process was performed. The cells were then fixed and permeabilized using the Intracellular Staining Kit (Cat. No. BD554715) from BD Biosciences. Subsequently, the intracellular pPDK1 was stained using the pPDK1-PE fluorescently labeled antibody (BD Biosciences).
Referring to the figure, the vertical axis represents the phosphorylation level of PDK1 (phospho-PDK1 expression level), and the horizontal axis denotes the concentration-dependent treatment conditions of each compound.

[3] = test system: MRL/lpr mice with hair loss in the facial region; experiment: Hair loss treatment and hair follicle Ki-67 IHC in MRL/lpr mice; assay type: in vivo; details: 41-week-old female MRL/lpr; GO15F (30 mg/kg), GO48 (1 mg/kg), GO88 (0.5 mg/kg) intraperitoneal once daily
Description: Additionally, in 41-week-old female MRL/Ipr mice, the compounds GO15F (30 mg/kg), GO48 (1 mg/kg), and GO88 (0.5 mg/kg) were administered intraperitoneally once daily.
To confirm the proliferative activity of hair follicle cells in the skin tissue of these mice, the mice were sacrificed 14 days after administration of the compounds of the present invention, and Ki-67 immunohistochemistry (IHC) was performed.
For this purpose, the excised skin tissue was fixed in formalin, embedded in paraffin blocks, and stained with a Ki-67-specific antibody on tissue sections prepared as slides.

[4] = test system: pulmonary fibrosis-induced mice; experiment: Bleomycin-induced pulmonary fibrosis animal model; assay type: in vivo, Balb/c mice; details: bleomycin mice lung, vs BLM-treated group
Description: To evaluate the therapeutic efficacy of the compound according to the present invention against pulmonary fibrosis, an animal model of pulmonary fibrosis induced by bleomycin intratracheal administration was established.
For this purpose, 8-week-old male Balb/c mice were subjected to general anesthesia using an inhalation anesthetic (2-3% isoflurane in oxygen), followed by disinfection of the neck region, skin incision, and exposure of the trachea.
Bleomycin (Sigma-Aldrich, USA) was directly administered into the trachea at a concentration of 5 mg/kg in a solution of 100 μL.
Two days prior to Bleomycin administration, the compound of the present invention or the comparative drug was administered intraperitoneally at the specified concentration and dose, and the administration was continued once daily for a total of 14 days.
The experimental groups included Normal, Bleomycin alone (BLM), and BLM plus the compound of the present invention (BLM+GO88, 0.2 mg/kg).
Ten days later, the mice were euthanized humanely using carbon dioxide gas, the trachea was incised, and PBS was injected into the trachea to remove blood from the lungs.
The lung tissue washed with PBS was excised, fixed in 4% paraformaldehyde solution for 24 hours, and then paraffin blocks and tissue sections were prepared. The prepared sections were subjected to pathological analysis using H&E, Masson's trichrome, and Sirius red staining.
Additionally, immunohistochemical (IHC) staining was performed for α-SMA (α-smooth muscle actin), an indicator of lung fibroblast activation.

| Compound | efficacy in improving dermatological symptoms (psoriasis-induced mice) | Relative cell viability (%) [1] | phospho-PDK1 expression level ([2]; listed as GO86) | hair growth on the facial region [3] | collagen deposition (Masson's trichrome and Sirius red staining) [4] | expression of α-SMA (IHC) [4] | phospho-PDK1 expression level ([2]; listed as GO88) | phospho-PDK1 expression level [2] |
| --- | --- | --- | --- | --- | --- | --- | --- | --- |
| 12-[4-(2,2-dimethylmorpholin-4-yl)]dodecyl-N-(6-aminopurine-2-yl) carboxamide [Compound 11] | excellent efficacy in improving dermatological symptoms | 31.19% | stronger PDK1 inhibition; also recorded: high inhibitory effects even at low concentrations |  |  |  |  |  |
| Nc1ncccc1C(=O)NCCCCCCCCCCCCN1CCNCC1 [Compound 14, 2-Amino-N-(12-(piperazin-1-yl)dodecyl)nicotinamide] | excellent efficacy in improving dermatological symptoms |  |  | hair growth was confirmed | significantly reduced | significantly suppressed | stronger PDK1 inhibition; also recorded: high inhibitory effects even at low concentrations |  |
| Nc1ncccc1C(=O)NCCCCCCCCCCCCF [Compound 57, 2-Amino-N-(12-fluoro-dodecyl)-nicotinamide] |  |  |  | hair growth was confirmed | significantly reduced | significantly suppressed |  | inhibitory effect on PDK1 phosphorylation |
